Results: article PMC10324399, “New Radiolabeled Exendin Analogues Show Reduced Renal Retention” (Molecular Pharmaceutics, 2023)

Assays:
[1] = co-administration; cited from earlier work
Text: Several successful strategies to reduce the renal uptake of radiolabeled peptides have been described. […]. […] These two studies evoked the question whether the translation of the methionine–isoleucine linker to exendin-4 could help to reduce the renal uptake of exendin. Based on literature, the additio ...

[2] = Dosimetry: kidney self-dose in mice (OLINDA/EXM, 25 g RADAR model); parameters: species or system mouse
Description: The kidney self-dose was calculated based on the activity distribution of the tracer in the kidneys. Time-integrated activity coefficients (MBq-h/MBq) were calculated using mono-exponential curve-fitting between the timepoints.

[3] = Serum stability of 68Ga- and 177Lu-labeled exendin-4 analogues in human serum; assay type: in vitro ADME; conditions: ^177Lu-labeled peptide, human serum (1:10), 37 °C, after 24 h, acetonitrile precipitation, RP-HPLC
Description: Serum stability was analyzed as described in the Supporting Information.
The radiolabeled compounds were incubated in
10 human serum (1:10) at 37°C and samples were taken after 1 and 2 hour incubation for the 68Ga-labeled
12 Supernatant was obtained by precipitating the serum proteins by adding a 1:1 (v/v) volume of
13 acetonitrile, followed by centrifugation for 5 min at 3220xg. Subsequently, the supernatant was
14 analyzed using RP-HPLC. RP-HPLC was performed as described in the main text.

[4] = Dosimetry: absorbed kidney dose extrapolated to humans (OLINDA/EXM, 80 kg male reference model); parameters: species or system human; conditions: radiolabeled tracer (^68Ga or ^177Lu), extrapolated from mice data
Text: The mice data were then used to extrapolate the expected absorbed kidney doses per injected activity to humans using the equation:[25],[26] [drawing 1] with [drawing 2] the percentage of the injected activity concentration, [drawing 3] the percentage of the injected activity per organ, m the organ mass, and M the total human or mouse body weight.

Row | reduction of estimated absorbed kidney dose vs reference without MI linker ([2]; in both mice and humans) [%] | estimated absorbed kidney dose per injected activity, mice ([2]; radiolabeled tracer (^68Ga or ^177Lu), from biodistribution in INS-1 tumor-bearing mice, OLINDA/EXM 2.1, 25 g RADAR model) [mSv/MBq] | serum stability [3] [% after 24 h] | estimated absorbed kidney dose per injected activity, humans [4] [mSv/MBq] | Compound | increase in renal uptake of radiolabeled exendin [1] [%]
1 |  |  |  |  | NCCCC[C@H](N)C(=O)O [lysine] | 6
2 | 57 | 1974 | >80 | 0.89 | Lys^40[Mep((S-)DOTA-Met-Ile-Mal-)]exendin-4 [DOTA-MI-exendin-4] | 
